# Reference: patent publication US11214803B2, “Modulators of YAP1 expression” (Ionis Pharmaceuticals, Inc., priority 2019, dated 2022)
# Strand notation (5' to 3'): a small letter for the sugar, then the base; units joined by * are phosphorothioate-linked, units joined directly phosphodiester-linked; [ ] holds rarer units or linkages, { } end groups; capitals alone tell only the bases. k = constrained ethyl (cEt); [5mC] = 5-methylcytosine; d = 2'-deoxy (DNA)
# Tested on: Yap1 mRNA
# Assay: Antisense inhibition of human Yap1 in A-431 cells by cEt gapmers, single dose (Example 3, RTS36584)
# Assay type: cell-based
# Conditions: Table 8; A-431 cells, 5,000 cells per well, free uptake, 2,000 nM, approximately 48 hours; RTS36584; normalized to RIBOGREEN; Yap1 mRNA relative to untreated control cells
# Summary of the method: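 Read-out is Yap1 mRNA as percent of untreated control, by quantitative RT-PCR normalized to total RNA (RiboGreen). Cells (A-431) received 2,000 nM of 3-10-3 cEt phosphorothioate gapmer via free uptake for roughly 48 hours.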
row,Substance,YAP1 (% UTC)
1,958393 (antisense kG*k[5mC]*k[5mC]*dT*dA*dT*dG*dA*dG*dT*d[5mC]*dA*dA*k[5mC]*k[5mC]*kT) [Compound 958393],89

# Same assay, conditions: Table 9; A-431 cells, 5,000 cells per well, free uptake, 2,000 nM, approximately 48 hours; RTS36584; normalized to RIBOGREEN; Yap1 mRNA relative to untreated control cells
row,Substance,YAP1 (% UTC)
1,958601 (k[5mC]*k[5mC]*kT*dT*dT*dA*dA*dA*dG*dG*d[5mC]*dA*d[5mC]*kT*kA*k[5mC]; antisense) [Compound 958601],17
2,958466 (antisense kG*kT*k[5mC]*dA*dT*dT*dA*dA*dG*dG*dA*dT*dG*kT*k[5mC]*kA) [Compound 958466],9
3,958776 (antisense kG*kG*kT*dA*d[5mC]*dT*d[5mC]*dT*d[5mC]*d[5mC]*dT*dT*d[5mC]*kA*kG*kA) [Compound 958776],94
4,958586 (kG*kG*k[5mC]*dA*dG*d[5mC]*dA*d[5mC]*dG*dG*dT*dG*dT*kA*kA*kG; antisense) [Compound 958586],78
5,958716 (antisense kA*kT*kG*dG*dA*d[5mC]*dT*dG*dT*dA*dT*dG*d[5mC]*kA*kG*k[5mC]) [Compound 958716],84

# Same assay, conditions: Table 10; A-431 cells, 5,000 cells per well, free uptake, 2,000 nM oligonucleotide, approx. 48 hours; primer probe set RTS36584; Yap1 mRNA normalized to RIBOGREEN, percent of untreated control
row,Substance,YAP1 (% UTC)
1,958767 (antisense kA*k[5mC]*kG*dA*dA*dT*dA*dA*dG*dG*d[5mC]*dA*dT*kT*kA*kG) [Compound 958767],6
2,958602 (kT*kG*k[5mC]*d[5mC]*dA*dT*dG*dT*dT*d[5mC]*d[5mC]*dA*dT*kA*kT*kA; antisense) [Compound 958602],16
3,958682 (k[5mC]*k[5mC]*kA*dT*dG*dA*dG*dG*dG*dA*d[5mC]*dT*d[5mC]*k[5mC]*k[5mC]*kA; antisense) [Compound 958682],123
4,958782 (antisense kA*kT*kG*dG*dT*d[5mC]*dT*d[5mC]*d[5mC]*d[5mC]*dA*dG*dT*k[5mC]*kA*k[5mC]) [Compound 958782],20
5,958757 (antisense kG*kT*kG*dA*dT*d[5mC]*dT*dG*d[5mC]*dA*d[5mC]*dA*dT*kT*kG*kT) [Compound 958757],5
6,958622 (antisense kG*kA*kT*dA*dT*dT*d[5mC]*d[5mC]*dG*d[5mC]*dA*dT*dT*kG*k[5mC]*k[5mC]) [Compound 958622],3

# Same assay, conditions: Table 11; A-431 cells, 5,000 cells per well, free uptake, 2,000 nM oligonucleotide, approx. 48 hours; primer probe set RTS36584; Yap1 mRNA normalized to RIBOGREEN, percent of untreated control
row,Substance,YAP1 (% UTC)
1,958643 (antisense kT*kA*kG*d[5mC]*dA*dA*d[5mC]*d[5mC]*d[5mC]*dA*d[5mC]*d[5mC]*d[5mC]*kT*kG*kG) [Compound 958643],59

# Same assay, conditions: Table 12; A-431 cells, 5,000 cells per well, free uptake, 2,000 nM modified oligonucleotide, approx. 48 hours; RTS36584; normalized to RIBOGREEN; Yap1 mRNA relative to untreated control cells
row,Substance,YAP1 (% UTC)
1,958574 (k[5mC]*kT*kG*dG*d[5mC]*dA*dA*dA*dT*dT*dA*dT*dA*kG*kG*k[5mC]; antisense) [Compound 958574],13
2,958739 (antisense kA*kG*k[5mC]*dA*dA*dT*dA*dG*dA*dG*dT*dA*dA*k[5mC]*k[5mC]*kA) [Compound 958739],4
3,958529 (k[5mC]*kA*kA*dG*dT*d[5mC]*dT*dT*dG*dT*dA*dA*dG*kT*kA*kA; antisense) [Compound 958529],3

# Same assay, conditions: Table 13; A-431 cells, 5,000 cells per well, free uptake, 2,000 nM modified oligonucleotide, approx. 48 hours; RTS36584; normalized to RIBOGREEN; Yap1 mRNA relative to untreated control cells
row,Substance,YAP1 (% UTC)
1,958565 (kT*kT*kG*dA*dG*d[5mC]*dA*d[5mC]*dT*dG*dA*dA*dA*kG*kT*kA; antisense) [Compound 958565],4
2,958455 (antisense kA*kG*kA*dG*dG*dA*dA*dT*dG*dA*dG*d[5mC]*dT*k[5mC]*kG*kA) [Compound 958455],43
3,958690 (antisense kT*kG*kG*dA*d[5mC]*dT*d[5mC]*dT*dT*dG*dA*dT*d[5mC]*kA*k[5mC]*kA) [Compound 958690],26
4,958775 (antisense kG*kT*k[5mC]*dT*dA*dT*dA*d[5mC]*dG*dG*dG*dA*dG*kA*kT*kT) [Compound 958775],29

# Same assay, conditions: Table 26; Yap1 mRNA by 3-10-3 cEt gapmers targeting SEQ ID NO.: 1, and 2; percent of untreated control
row,Substance,YAP1 (% UTC)
1,1076236 (kG*kG*kA*dG*dA*dA*d[5mC]*d[5mC]*dT*dT*dA*dT*dT*kT*kA*kT; antisense) [compound 1076236],51
2,1076204 (kG*kA*kT*dA*dA*dT*dG*dA*dA*dT*d[5mC]*d[5mC]*dT*kT*kG*kT; antisense) [compound 1076204],11
3,1074796 (k[5mC]*kT*k[5mC]*d[5mC]*dA*dA*dA*dT*d[5mC]*dA*dA*dT*dG*kT*kG*k[5mC]; antisense) [compound 1074796],22
4,1074764 (kA*kT*kG*d[5mC]*dT*dA*d[5mC]*d[5mC]*d[5mC]*dA*dA*dT*dA*k[5mC]*kA*kA; antisense) [compound 1074764],18
5,1074124 (kG*kG*k[5mC]*dT*dG*d[5mC]*dG*dA*dG*dG*d[5mC]*dA*d[5mC]*kT*k[5mC]*kG; antisense) [compound 1074124],94
6,1075852 (kG*kA*kT*dA*dA*dG*d[5mC]*d[5mC]*dG*dA*dA*dT*dA*kT*kG*kG; antisense) [compound 1075852],58

# Same assay, conditions: Table 27; Yap1 mRNA by 3-10-3 cEt gapmers targeting SEQ ID NO.: 1, and 2; percent of untreated control
row,Substance,YAP1 (% UTC)
1,1075725 (kA*kT*k[5mC]*d[5mC]*dT*dA*dT*d[5mC]*dT*dG*dT*d[5mC]*dA*kG*kT*kT; antisense) [compound 1075725],18
2,1075085 (antisense kT*kG*k[5mC]*dG*dG*dA*dA*dA*d[5mC]*dA*dA*dG*dT*kG*kT*kA) [compound 1075085],11
3,1075981 (kA*kA*kG*d[5mC]*dA*dA*dT*dA*dT*d[5mC]*d[5mC]*dT*dA*k[5mC]*kA*k[5mC]; antisense) [compound 1075981],40
4,1075597 (antisense kA*kT*kT*dA*dA*d[5mC]*dA*dT*dT*dT*dG*d[5mC]*d[5mC]*k[5mC]*kG*k[5mC]) [compound 1075597],47
5,1074317 (antisense kG*kA*kG*dA*dA*dT*dT*dT*dG*d[5mC]*dT*dG*dT*kG*k[5mC]*kT) [compound 1074317],12
6,1075533 (kG*kA*kT*dT*dA*d[5mC]*dT*d[5mC]*dA*dG*d[5mC]*dT*dA*kT*kG*kT; antisense) [compound 1075533],65

# Same assay, conditions: Table 28; Yap1 mRNA as percent of untreated control; 3-10-3 cEt gapmers targeting SEQ ID NO.: 1, and 2
row,Substance,YAP1 (% UTC)
1,1076014 (kA*kA*kT*d[5mC]*dA*dA*d[5mC]*d[5mC]*dT*dA*dT*dG*dA*kG*kG*kT; antisense) [compound 1076014],98
2,1075086 (antisense kA*kG*kT*dT*dA*dT*dA*dG*dA*d[5mC]*dT*dT*dT*kG*kT*kA) [compound 1075086],25
3,1075342 (antisense kA*k[5mC]*kT*dA*dA*dA*dA*dG*dG*dG*dA*dG*dT*kA*kG*kG) [compound 1075342],87
4,1076110 (k[5mC]*kT*kT*dT*dA*d[5mC]*d[5mC]*dT*dA*dA*dA*dT*dG*kT*kT*kG; antisense) [compound 1076110],53
5,1074542 (kA*kG*kG*d[5mC]*dA*d[5mC]*dT*dA*dT*d[5mC]*d[5mC]*dA*d[5mC]*kA*kG*kT; antisense) [compound 1074542],21

# Same assay, conditions: Table 29; Yap1 mRNA as percent of untreated control; 3-10-3 cEt gapmers targeting SEQ ID NO.: 1, and 2
row,Substance,YAP1 (% UTC)
1,1074511 (kG*kA*kT*dA*d[5mC]*dA*dT*dT*d[5mC]*d[5mC]*dA*d[5mC]*dT*kA*k[5mC]*k[5mC]; antisense) [compound 1074511],9
2,1075023 (antisense kG*kT*kA*dT*dT*dT*dA*d[5mC]*dA*dA*d[5mC]*d[5mC]*dT*kA*kG*kA) [compound 1075023],18
3,1076079 (kA*kA*kG*d[5mC]*dA*dA*dT*dA*dT*dA*dT*dG*dG*k[5mC]*k[5mC]*kT; antisense) [compound 1076079],37

# Same assay, conditions: Table 34; Yap1 mRNA as percent of untreated control; 3-10-3 cEt gapmers targeting SEQ ID NO: 1 and 2; single dose
row,Substance,YAP1 (% UTC)
1,1075444 (antisense kA*kT*kA*dA*dA*dT*d[5mC]*d[5mC]*dT*d[5mC]*dA*dT*dG*kT*kG*kG) [compound 1075444],112
2,1075124 (kG*kT*kA*dA*dA*dA*dA*d[5mC]*d[5mC]*dT*dG*dG*dG*kT*kT*kT; antisense) [compound 1075124],58

# Same assay, conditions: Table 35; Yap1 mRNA as percent of untreated control; 3-10-3 cEt gapmers targeting SEQ ID NO: 1 and 2; single dose
row,Substance,YAP1 (% UTC)
1,1075253 (kG*kT*kT*dA*dA*dT*dT*dA*d[5mC]*dG*dA*dT*dT*kA*kG*kA; antisense) [compound 1075253],20
2,1075317 (antisense kG*kT*kA*dT*dT*d[5mC]*dG*d[5mC]*d[5mC]*dT*d[5mC]*d[5mC]*dT*kG*k[5mC]*kA) [compound 1075317],27
3,1075605 (antisense k[5mC]*kG*kT*dA*dA*dA*d[5mC]*dA*dT*dT*dT*dT*dG*k[5mC]*k[5mC]*kT) [compound 1075605],38
4,1074901 (antisense kT*kA*kT*dT*dA*dA*d[5mC]*dT*dT*dT*dT*dG*dG*kG*k[5mC]*kA) [compound 1074901],61
